From patent US20230391772A1, “METHODS AND COMPOSITIONS FOR TARGETED PROTEIN DEGRADATION” (Ranok Therapeutics (Hangzhou) Co. Ltd., priority 2020, published 2023)

Assays:
[1] = biological target: T1, HSP90a protein (Homo sapiens, UniProt P07900); assay: HSP90α-binding fluorescent polarization (FP) assay, BODIPY-labeled RNK04010 probe; conditions: FP competition with RNK04010 (BODIPY-labeled), 5 nM, 300 min at 25° C.
T1 construct: purchased BPS Bioscience 50298
Method in brief: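 Binding was scored by fluorescence polarization after adding N-terminal HSP90a to wells holding probe and compound, with compound tested from 20 μM to 5.2 nM. Probe-dependent times at 25° C were 120 min for FITC-geldanamycin and 300 min for RNK04010-BODIPY, both at 5 nM final.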

[2] = system: NCI-H23 human non-small cell lung cancer; assay: NCI-H23 CCK-8 proliferation assay; assay type: cell-based; conditions: NCI-H23 cells, 72 hr
Experimental: The following cancer cell lines were employed: BT-474 human breast carcinoma (ATCC, #HTB-20); MIA PaCa-2 human pancreatic carcinoma [2 copies KRAS(G12C)](ATCC, #CRL-1420); NCI-H23 human non-small cell lung cancer [1 copy KRAS(G12C)](ATCC, #CRL-5800); NCI-H358 human non-small cell lung cancer [1 copy KRAS(G12C)](ATCC, #CRL-5807); LU65A human lung carcinoma (Pharmaron, Beijing, China). Cell lines were cultured essentially according to ATCC and Pharmaron recommendations.
Cancer Cell Line Proliferation (CCK-8) Assays
3-fold serial dilutions of each test compound were prepared ranging from 20 μM to 1.02 nM.
% Inhibition=100−(D−B)/(S−B)*100%. • S: Absorbance of cells treated with DMSO • D: Absorbance of compound-treated cells • B: Absorbance of medium with DMSO without cells

[3] = system: NCI-H358 human non-small cell lung cancer; assay: NCI-H358 CCK-8 proliferation assay; assay type: cell-based; conditions: NCI-H358 cells, 72 hr
Method in brief: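 Compounds were tested as a 3-fold series from 20 μM down to 1.02 nM in CCK-8 absorbance assays. The lines used were NCI-H23 and NCI-H358, each with 1 KRAS(G12C) copy, and MIA PaCa-2 with 2 copies. Inhibition was derived relative to DMSO controls, with a no-cell blank subtracted.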

Row | IC50 [1] [nM] | EC50 [2] [nM] | EC50 [3] [nM] | SMILES
1 | 100 to 1000 | 100 to 1000 | 100 to 1000 | C=CC(=O)N1CCN(c2nc(NCCC(=O)N3CCC(CN4CCN(Cc5ccc(-n6c(C(=O)NCC(F)(F)F)nnc6-c6cc(C)c(O)cc6O)cc5)CC4)CC3)nc3c2CCN(c2cc(O)cc4ccccc24)C3)CC1 [Compound 10, 4-(4-((4-((1-(3-((4-(4-acryloylpiperazin-1-yl)-7-(3-hydroxynaphthalen-1-yl)-5,6,7,8-tetrahydropyrido[3,4-d]pyrimidin-2-yl)amino)propanoyl)piperidin-4-yl)methyl)piperazin-1-yl)methyl)phenyl)-5-(2,4-dihydroxy-5-methylphenyl)-N-(2,2,2-trifluoroethyl)-4H-1,2,4-triazole-3-carboxamide, trifluoroacetic acid]
2 | 100 to 1000 | 100 to 1000 | 100 to 1000 | C=CC(=O)N1CCN(c2nc(NCCC(=O)N3CCC(CN4CCN(Cc5ccc(-n6c(O)nnc6-c6cc(C(C)C)c(O)cc6O)cc5)CC4)CC3)nc3c2CCN(c2cccc4cccc(Cl)c24)C3)C[C@H]1CC#N [Compound 87, (R)-2-(1-acryloyl-4-(7-(8-chloronaphthalen-1-yl)-2-((3-(4-((4-(4-(3-(2,4-dihydroxy-5-isopropylphenyl)-5-hydroxy-4H-1,2,4-triazol-4-yl)benzyl)piperazin-1-yl)methyl)piperidin-1-yl)-3-oxopropyl)amino)-5,6,7,8-tetrahydropyrido[3,4-d]pyrimidin-4-yl)piperazin-2-yl)acetonitrile, trifluoroacetic acid]
3 | < 100 | > 1000 | 100 to 1000 | C=CC(=O)N1CCN(c2nc(NCCC(=O)N3CCC(CN4CCN(Cc5ccc(-n6c(C(N)=O)nnc6-c6cc(CC)c(O)cc6O)cc5)CC4)CC3)nc3c2CCN(c2cc(O)cc4ccccc24)C3)CC1 [Compound 71, 4-(4-((4-((1-(3-((4-(4-acryloylpiperazin-1-yl)-7-(3-hydroxynaphthalen-1-yl)-5,6,7,8-tetrahydropyrido[3,4-d]pyrimidin-2-yl)amino)propanoyl)piperidin-4-yl)methyl)piperazin-1-yl)methyl)phenyl)-5-(5-ethyl-2,4-dihydroxyphenyl)-4H-1,2,4-triazole-3-carboxamide]
4 | > 1000 | 100 to 1000 | 100 to 1000 | CCc1cc(-c2nnc(C(=O)NCC(F)(F)F)n2-c2ccc(CN(C)Cc3ccc(CC4CCN(C(=O)CCNc5nc6c(c(N7CCN(C(C)=O)[C@H](CC#N)C7)n5)CCN(c5cccc7ccccc57)C6)CC4)cc3)cc2)c(O)cc1O [Compound 118, (R)-4-(4-(((4-((1-(3-((4-(4-acetyl-3-(cyanomethyl)piperazin-1-yl)-7-(naphthalen-1-yl)-5,6,7,8-tetrahydropyrido[3,4-d]pyrimidin-2-yl)amino)propanoyl)piperidin-4-yl)methyl)benzyl)(methyl)amino)methyl)phenyl)-5-(5-ethyl-2,4-dihydroxyphenyl)-N-(2,2,2-trifluoroethyl)-4H-1,2,4-triazole-3-carboxamide, trifluoroacetic acid]
5 | < 100 | > 1000 | 100 to 1000 | CCC(=O)N1CCN(c2nc(NCCC(=O)N3CCC(CN4CCN(Cc5ccc(-n6c(C(N)=O)nnc6-c6cc(CC)c(O)cc6O)cc5)CC4)CC3)nc3c2CCN(c2cc(O)cc4ccccc24)C3)CC1 [Compound 75, 5-(5-ethyl-2,4-dihydroxyphenyl)-4-(4-((4-((1-(3-((7-(3-hydroxynaphthalen-1-yl)-4-(4-propionylpiperazin-1-yl)-5,6,7,8-tetrahydropyrido[3,4-d]pyrimidin-2-yl)amino)propanoyl)piperidin-4-yl)methyl)piperazin-1-yl)methyl)phenyl)-4H-1,2,4-triazole-3-carboxamide, trifluoroacetic acid]
6 | 100 to 1000 | 100 to 1000 | 100 to 1000 | C=C(F)C(=O)N1CCN(c2nc(N3CCC(N4CCN(Cc5ccc(-n6c(O)nnc6-c6cc(C(C)C)c(O)cc6O)cc5)CC4)CC3)nc3c2CCN(c2cccc4cccc(Cl)c24)C3)C[C@@H]1CC#N [Compound 132, (S)-2-(4-(7-(8-chloronaphthalen-1-yl)-2-(4-(4-(4-(3-(2,4-dihydroxy-5-isopropylphenyl)-5-hydroxy-4H-1,2,4-triazol-4-yl)benzyl)piperazin-1-yl)piperidin-1-yl)-5,6,7,8-tetrahydropyrido[3,4-d]pyrimidin-4-yl)-1-(2-fluoroacryloyl)piperazin-2-yl)acetonitrile]
7 | < 100 | > 1000 | 100 to 1000 | CC(=O)N1CCN(c2nc(NCCC(=O)N[C@H](C)c3ccc(CN4CCC(Cc5ccc(-n6c(O)nnc6-c6cc(C(C)C)c(O)cc6O)cc5)CC4)cc3)nc3c2CCN(c2cc(O)cc4ccccc24)C3)CC1 [Compound 60, (R)-3-((4-(4-acetylpiperazin-1-yl)-7-(3-hydroxynaphthalen-1-yl)-5,6,7,8-tetrahydropyrido[3,4-d]pyrimidin-2-yl)amino)-N-(1-(4-((4-(4-(3-(2,4-dihydroxy-5-isopropylphenyl)-5-hydroxy-4H-1,2,4-triazol-4-yl)benzyl)piperidin-1-yl)methyl)phenyl)ethyl)propanamide, trifluoroacetic acid]
8 | < 100 | 100 to 1000 | 100 to 1000 | C=CC(=O)N1CCN(c2nc(OCCC(=O)N3CCC(CN4CCN(Cc5ccc(-n6c(O)nnc6-c6cc(C(C)C)c(O)cc6O)cc5)CC4)CC3)nc3c2CCN(c2cc(O)cc4ccccc24)C3)CC1 [Compound 15, 1-(4-(2-(3-(4-((4-(4-(3-(2,4-dihydroxy-5-isopropylphenyl)-5-hydroxy-4H-1,2,4-triazol-4-yl)benzyl)piperazin-1-yl)methyl)piperidin-1-yl)-3-oxopropoxy)-7-(3-hydroxynaphthalen-1-yl)-5,6,7,8-tetrahydropyrido[3,4-d]pyrimidin-4-yl)piperazin-1-yl)prop-2-en-1-one, trifluoroacetic acid]
9 | 100 to 1000 | 100 to 1000 | 100 to 1000 | C=CC(=O)N1CCN(c2nc(NCCC(=O)N3CCC(CN4CCN(Cc5ccc(-n6c(C(N)=O)nnc6-c6cc(CC)c(O)cc6O)cc5)CC4)CC3)nc3c2CCN(c2cccc4cccc(Cl)c24)C3)C[C@H]1CC#N [Compound 99, (R)-4-(4-((4-((1-(3-((4-(4-acryloyl-3-(cyanomethyl)piperazin-1-yl)-7-(8-chloronaphthalen-1-yl)-5,6,7,8-tetrahydropyrido[3,4-d]pyrimidin-2-yl)amino)propanoyl)piperidin-4-yl)methyl)piperazin-1-yl)methyl)phenyl)-5-(5-ethyl-2,4-dihydroxyphenyl)-4H-1,2,4-triazole-3-carboxamide, trifluoroacetic acid]
10 | > 1000 | 100 to 1000 | > 1000 | CCc1cc(-c2nnc(O)n2-c2ccc(CN3CCN(CC4CCN(c5nc6c(c(N7CCN(C(=O)C(F)(F)F)[C@@H](CC#N)C7)n5)CCN(c5cccc7cccc(Cl)c57)C6)CC4)CC3)cc2)c(O)cc1O [Compound 131, (S)-2-(4-(7-(8-chloronaphthalen-1-yl)-2-(4-((4-(4-(3-(5-ethyl-2,4-dihydroxyphenyl)-5-hydroxy-4H-1,2,4-triazol-4-yl)benzyl)piperazin-1-yl)methyl)piperidin-1-yl)-5,6,7,8-tetrahydropyrido[3,4-d]pyrimidin-4-yl)-1-(2,2,2-trifluoroacetyl)piperazin-2-yl)acetonitrile]
